Target: T1, bovine serum albumin (BSA) (Bos taurus, UniProt P02769)
T1 construct: gene ALB; mature secreted protein
Assay: tryptophan fluorescence quenching, excitation […] nm
Format: binding
Conditions: double-log, natural logarithm of K, PBS, 300 K

T1 sequence (P02769 25-607): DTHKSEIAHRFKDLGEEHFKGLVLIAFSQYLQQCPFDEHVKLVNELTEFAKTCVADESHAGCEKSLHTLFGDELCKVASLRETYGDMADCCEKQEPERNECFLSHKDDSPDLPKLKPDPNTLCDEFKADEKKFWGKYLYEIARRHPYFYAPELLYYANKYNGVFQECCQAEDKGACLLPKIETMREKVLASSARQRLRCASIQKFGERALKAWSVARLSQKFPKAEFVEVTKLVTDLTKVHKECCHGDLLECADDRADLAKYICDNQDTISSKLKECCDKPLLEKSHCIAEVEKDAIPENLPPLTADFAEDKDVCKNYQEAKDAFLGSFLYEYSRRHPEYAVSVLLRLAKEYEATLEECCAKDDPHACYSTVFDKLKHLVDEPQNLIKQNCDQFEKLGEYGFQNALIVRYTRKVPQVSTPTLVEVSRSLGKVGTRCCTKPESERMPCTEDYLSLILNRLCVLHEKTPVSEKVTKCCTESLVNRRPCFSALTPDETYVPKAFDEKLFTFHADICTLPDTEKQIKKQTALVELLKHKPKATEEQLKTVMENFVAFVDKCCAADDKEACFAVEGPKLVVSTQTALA

Row | SMILES | lnK | lnK (covalent (suspected by the authors from new 480 nm peak), unreliable)
1 | COC(=O)c1cc2cc([N+](=O)[O-])ccc2oc1=O [6-NO2] | 9.03 ln (M^-1 not printed) | 
2 | COC(=O)c1cc2cc(OC)ccc2oc1=O [6-OMe] |  | 12.62 ln (M^-1 not printed)
3 | COC(=O)c1cc2cc(Br)ccc2oc1=O [6-Br] | 9.78 ln (M^-1 not printed) | 
